Patent US20050032687A1, “Method and composition for the modulation of angiogenesis” (priority 2001, published 2005)
Entries after “also recorded” stand apart in the source; their conditions may differ.

Experiments:
[1] = tested on: bovine aortic endothelial cells (BAEC); experiment: Cell migration in modified Boyden chamber; assay type: cell-based; details: for cell migration: VEGF-stimulated BAEC (100 ng/ml, 18 hr) with eNOS inhibitor (L-NAME 1 mmol/L, L-NMMA 100 μmol/L); for cell migration (fluorescence), result in words: BAEC
Procedure: Fluorescently labeled, BAEC were stimulated with VEGF (100ng/ml) for 18 hr and cell migration was assessed in a modified Boyden Chamber.
BAEC were fluorescently labeled with calcein AM (Molecular Probes, Inc.) and 0.4×10^3 cells were loaded to the top of a pre-fitted membrane filter that fit a specially designed 96-well microplate. The microplate wells were loaded with serum-free media and VEGF (100 ng/ml) for 18 hr., and cells were allowed to migrate across the membrane. The plate was then analyzed using a fluorescent microplate reader.

G6PD [2] = experiment: G6PD activity in BAEC; assay type: cell-based, bovine; details: for G6PD activity: VEGF 100 ng/ml
Excerpt: (§1) To investigate the role of G6PD in vascular endothelial cell proliferation, we initially sought to determine if growth factors involved in angiogenesis, such as vascular endothelial growth factor (VEGF), influenced G6PD activity.
(§2) To examine further the role of G6PD in VEGF-mediated cell proliferation, we next inhibited G6PD activity by exposing BAEC to dehydroepiandrosterone (DHEA) ([…]), a noncompetitive inhibitor of G6PD, for 24 hr.
(§3) As a control, we used a phosphorothioate oligodeoxynucleotide with a scrambled sequence (SS).
(§4) We have recently constructed an adenoviral vector incorporating murine G6PD cDNA (93% homologous to the rat cDNA).

[3] = tested on: bovine aortic endothelial cells (BAEC); experiment: Cellular NADPH levels in BAEC; assay type: cell-based; details: for cellular NADPH levels: VEGF 100 ng/ml
Excerpt: as §1, §4

G6PD [4] = experiment: G6PD expression by Western analysis in BAEC; assay type: cell-based, bovine
Excerpt: as §1, §3, §4

[5] = tested on: bovine aortic endothelial cells (BAEC); experiment: Endothelial cell tube formation on Matrigel; assay type: cell-based; details: VEGF 100 ng/ml for 12 hr
Procedure: FIGS. 5A and B show G6PD and Tube Formation. BAEC were transfected with an antisense oligodecocynucleotide to G6PD and mRNA (AS) or a scrambled control (SS) and plated on Matrigel. Cells were then stimulated with VEGF and tube formation was assessed visually (5A) and quantified using area analysis with background substration (5B). Results of area analysis are the average of 10 high-powered fields.
FIGS. 6A and B show G6PD overexpression and tube formation. G6PD expression was increased via adenoviral-mediated gene transfer. BAEC were then placed on Matrigel and stimulated with VEGF ([…]).
To examine the role of G6PD in endothelial cell tube formation in vitro, we plated BAEC on Matrigel and stimulated cells with VEGF (100ng/ml) for 12 hr. Results were quantified using NIH Image to determine area of tube formation. Under basal conditions, BAEC plated on Matrigel formed tubes and networks that were increased following exposure to VEGF.
In order to confirm that G6PD importantly modulates tube formation in vitro, we next increased G6PD expression via adenoviral-mediated gene transfer and examined tube formation.

[6] = tested on: bovine aortic endothelial cells (BAEC); experiment: Cell-wounding migration assay; assay type: cell-based; details: VEGF 100 ng/ml, serum-free media, 18 hr
Procedure: FIGS. 3A-D show G6PD and endothelial cell migration.
We next examined the role of G6PD on VEGF-stimulated endothelial cell migration. In a cell-wounding migration assay, BAEC were grown to confluence on a P100 culture dish. Using a sterile scalpel, a vertical incision was made in the midline of the dish, and under microscopic guidance, BAEC were removed from one-half of the plate. BAEC were then incubated with VEGF (100 ng/ml) in serum-free media, and cell migration across the midline was observed after 18 hr and quantified by the average cell count in 5 high powered fields.

[7] = tested on: C3H wild-type (WT) and hemizygous male (HEMI) mice; experiment: In vivo Matrigel plug migration assay; parameters: species or system mouse
Procedure: To examine the effect of G6PD activity on angiogenesis in vivo, we performed an in vivo Matrigel migration assay in C3H wild-type (WT) and hemizygous male (HEMI) mice. Matrigel, derived from mouse basement membrane proteins, was implanted subcutaneously in the groin area to form a Matrigel “plug”. Each mouse was injected on one side with either Matrigel alone, or Matrigel supplemented with VEGF (100 ng/ml). In this manner, each animal could serve as its own control. Plugs were left in place for 14 days. Following this time, the animals were euthanized, plugs excised with surrounding tissue for orientation, and embedded and sectioned in paraffin. Sections were then stained with Hematoxylin & Eosin (H&E). Images were captured digitally and assessed for cell counts. For orientation purposes, a representative Matrigel plug from a WT mouse at 4× (right) and 20× (left) magnification is shown below (FIG. 9).
These findings were quantified by counting cells in 10 randomly selected high-power (20×) fields per image in 3 successive images. […] These findings confirm that G6PD modulates angiogenesis in vivo.
We next wanted to determine if we could “rescue” the G6PD-deficient phenotype using gene transfer to increase local G6PD expression. We treated Matrigel with an adenoviral vector encoding for G6PD implanted plugs in HEMI mice for 7 days in the presence or absence of VEGF (FIG. 13).

[8] = tested on: bovine aortic endothelial cells (BAEC); experiment: Endothelial cell proliferation by [3H]-thymidine incorporation; assay type: cell-based
Procedure: FIGS. 1A and 1B show G6PD and endothelial cell proliferation. BAEC were treated with DHEA to decrease G6PD activity and stimulated with VEGF (100 ng/ml) for 8 hr (1A). Cell proliferation is measured by [^3H]-Thymidine incorporation. G6PD expression was inhibited by trans(in)fection with an antisense oligonucleotide to G6PD mRNA (AS) or a scrambled control (SS) and proliferation was determined by [^3H]-Thymidine incorporation (1B). Results are expressed as counts per minute (cpm) and data presented as mean±SEM. *p<0.01 vs.−VEGF.**p<0.01 vs.−DHEA or −SS.
as §2, §3, §4

[9] = tested on: bovine aortic endothelial cells (BAEC); experiment: Cell death by lactate dehydrogenase activity measured in the media; assay type: cell-based; details: DHEA-treated BAEC
Excerpt: as §2

[10] = DHEA-treated or AS transfection for 5 hours

CNC(=N)NCCC[C@H](N)C(=O)O [L-NMMA]
cell migration [1]: 21.6±7.3 units

VEGF
G6PD activity (G6PD [2]; 24 hr): 87±19 units/6 min/mg protein | G6PD activity (G6PD [2]; after 4 hr): 182.7±37 units/6 min/mg protein | cellular NADPH levels ([3]; 4 hr): 0.5±0.04 mmoles/mg protein | cellular NADPH levels ([3]; 24 hr): 0.4±0.08 mmoles/mg protein | G6PD expression (G6PD [4]): did not increase G6PD expression | tube formation / vessel area [5]: increased | cell migration as fluorescence ([1]; BAEC with normal G6PD activity, VEGF 100 ng/ml, 18 hr): 55.3±6.6 units | cell migration (fluorescence), result in words ([1]; VEGF 100 ng/ml, 18 hr): significant increase in fluorescence | cell migration across the midline, average cell count [6]: 28±6 cells/hpf | cell migration into the Matrigel plug ([7]; HEMI mice, 7 days): not increased significantly | cell migration into the Matrigel plug ([7]; HEMI mice, 14 days, Matrigel with VEGF 100 ng/ml): did not significantly improve this response | cell migration into the Matrigel plug ([7]; WT mice, 14 days, Matrigel with VEGF 100 ng/ml): increased the number of cells migrating into the Matrigel plug

COC(=O)[C@@H](N)CCCNC(=N)N[N+](=O)[O-] [L-NAME]
cell migration [1]: 23.6±17 units

C[C@]12CC[C@H](O)CC1=CC[C@@H]1[C@@H]2CC[C@]2(C)C(=O)CC[C@@H]12 [DHEA, dehydroepiandrosterone]
reduction in G6PD activity (G6PD [2]; [10]): 60% | decrease in the level of cellular NADPH [3, 10]: 30% | [3H]-thymidine incorporation ([8]; basal conditions (DHEA 100 pmol/L for 24 hr; AS or SS transfected)): 9,967±1,531 cpm | [3H]-thymidine incorporation ([8]; following stimulation with VEGF 100 ng/ml for 8 hr): 8,902±1,451 cpm | cell death by lactate dehydrogenase activity in the media [9]: not the result of increased cell death | cell migration (fluorescence), result in words ([1]; VEGF 100 ng/ml, 18 hr): abrogated; also recorded: VEGF did not significantly increase migration | cell migration across the midline, average cell count [6]: 10±2 cells/hpf
